Source: patent US20210300940A1 (Merck Patent GmbH, priority 2018, published 2021)

Experiments:
[1] = target: T1, TLR7 (Homo sapiens, UniProt Q9NYK1); test: HEK/293 TLR7 Cell Assay; assay type: cell-based; conditions: TLR7/NFKb HEK cells, R848 agonist 10 uM final concentration, Steady-Glo readout; read-out: TLR7 potency
T1 construct: expressed in transfected cells; host or cells: HEK/293 cells carrying TLR7 and an NF-kB luciferase reporter
T1 sequence (Q9NYK1 27-1049): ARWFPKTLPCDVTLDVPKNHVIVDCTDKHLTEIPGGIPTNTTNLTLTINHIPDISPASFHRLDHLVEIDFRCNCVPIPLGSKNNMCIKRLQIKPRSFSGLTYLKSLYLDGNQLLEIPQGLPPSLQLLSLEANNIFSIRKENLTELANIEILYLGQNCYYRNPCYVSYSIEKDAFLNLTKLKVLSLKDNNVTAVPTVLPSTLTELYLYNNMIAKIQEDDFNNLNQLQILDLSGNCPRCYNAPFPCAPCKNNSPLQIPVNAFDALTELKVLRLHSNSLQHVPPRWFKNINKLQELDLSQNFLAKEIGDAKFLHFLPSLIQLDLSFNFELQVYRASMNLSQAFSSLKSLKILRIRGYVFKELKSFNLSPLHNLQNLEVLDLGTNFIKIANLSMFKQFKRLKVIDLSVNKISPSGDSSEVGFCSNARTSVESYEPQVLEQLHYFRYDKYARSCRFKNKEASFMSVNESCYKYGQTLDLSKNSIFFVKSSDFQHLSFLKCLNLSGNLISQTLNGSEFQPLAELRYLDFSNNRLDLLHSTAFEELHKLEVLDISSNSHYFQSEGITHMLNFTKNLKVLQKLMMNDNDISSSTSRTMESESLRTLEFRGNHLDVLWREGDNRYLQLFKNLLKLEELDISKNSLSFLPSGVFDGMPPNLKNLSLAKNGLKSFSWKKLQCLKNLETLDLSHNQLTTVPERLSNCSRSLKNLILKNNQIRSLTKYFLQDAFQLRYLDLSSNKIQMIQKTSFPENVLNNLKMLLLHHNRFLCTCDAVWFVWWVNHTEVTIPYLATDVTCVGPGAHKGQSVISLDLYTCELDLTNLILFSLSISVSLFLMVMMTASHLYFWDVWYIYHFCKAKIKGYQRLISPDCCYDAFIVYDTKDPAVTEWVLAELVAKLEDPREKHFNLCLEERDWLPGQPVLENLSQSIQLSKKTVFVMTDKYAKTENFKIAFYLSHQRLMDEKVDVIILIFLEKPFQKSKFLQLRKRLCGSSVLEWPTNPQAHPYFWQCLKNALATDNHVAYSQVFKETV
In short: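 Compounds added to HEK cells expressing TLR7 with an NFκB reporter 30 min ahead of 10 uM R848 challenge; luciferase signal (Steady-Glo) measured after 5 h, cells having been seeded 24 h earlier at 5000 per well.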

[2] = target: T2, TLR8 (Homo sapiens, UniProt Q9NR97); test: HEK/293 TLR8 Cell Assay; assay type: cell-based; conditions: HEK cells, R848 agonist 30 uM final concentration, Steady-Glo readout; read-out: TLR8 potency
T2 construct: expressed in transfected cells; host or cells: HEK/293 reporter cells (NF-kB luciferase)
T2 sequence (Q9NR97 27-1041): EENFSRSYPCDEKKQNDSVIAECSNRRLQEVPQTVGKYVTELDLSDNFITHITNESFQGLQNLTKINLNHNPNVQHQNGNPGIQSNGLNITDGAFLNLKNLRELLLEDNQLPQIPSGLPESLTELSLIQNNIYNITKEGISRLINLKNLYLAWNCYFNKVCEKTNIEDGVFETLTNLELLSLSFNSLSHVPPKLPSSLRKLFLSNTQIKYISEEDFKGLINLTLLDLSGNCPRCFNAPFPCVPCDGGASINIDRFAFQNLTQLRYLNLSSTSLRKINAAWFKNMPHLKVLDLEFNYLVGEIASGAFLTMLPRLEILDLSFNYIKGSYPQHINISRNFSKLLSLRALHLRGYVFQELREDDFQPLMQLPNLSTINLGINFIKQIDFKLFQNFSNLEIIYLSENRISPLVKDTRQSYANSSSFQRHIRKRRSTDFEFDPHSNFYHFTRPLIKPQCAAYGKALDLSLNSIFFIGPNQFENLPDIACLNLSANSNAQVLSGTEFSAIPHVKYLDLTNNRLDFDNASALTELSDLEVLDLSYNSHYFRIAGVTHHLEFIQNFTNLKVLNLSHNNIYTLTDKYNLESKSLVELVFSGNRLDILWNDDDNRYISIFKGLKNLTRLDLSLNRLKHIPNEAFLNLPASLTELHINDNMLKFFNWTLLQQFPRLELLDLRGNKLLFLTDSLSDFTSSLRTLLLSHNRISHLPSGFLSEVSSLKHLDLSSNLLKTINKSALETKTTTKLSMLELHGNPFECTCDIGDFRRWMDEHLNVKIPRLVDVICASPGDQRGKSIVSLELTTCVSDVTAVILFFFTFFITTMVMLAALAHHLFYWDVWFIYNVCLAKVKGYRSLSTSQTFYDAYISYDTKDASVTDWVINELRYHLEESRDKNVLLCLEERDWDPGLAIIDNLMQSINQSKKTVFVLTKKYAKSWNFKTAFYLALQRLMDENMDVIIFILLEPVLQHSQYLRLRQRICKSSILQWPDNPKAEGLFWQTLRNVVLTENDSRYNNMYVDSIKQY

`N#Cc1ccc(N2C[C@@H](C(F)(F)F)O[C@@H](C(=O)NCC3(F)CCNCC3)C2)c2nccnc12` (single isomer, unassigned) [Example 305] was tested, and the IC50 [1] was < 75 nM and the IC50 [2] was < 75 nM.

For `C[C@H]1C[C@@H](NCCN2CCOC2=O)CN(c2ccc(C(F)(F)F)c3ncccc23)C1` [Example 29, 3-{2-[(3R,5S)-5-Methyl-1-(8-trifluoromethyl-quinolin-5-yl)-piperidin-3-ylamino]-ethyl}-oxazolidin-2-one], the IC50 [1] was < 75 nM and the IC50 [2] was < 75 nM.

`Cc1ncc(N2C[C@H](NC(=O)C(F)C3CCNC3)C[C@H](C(F)(F)F)C2)c2cccnc12` (stereo partly drawn) [Example 137, 2-Fluoro-N-[(3R,5S)-1-(8-methyl-[1,7]naphthyridin-5-yl)-5-trifluoromethyl-piperidin-3-yl]-2-pyrrolidin-3-yl-acetamide] was tested, and the IC50 [1] was < 75 nM and the IC50 [2] was < 75 nM.

`C[C@@H]1CN(c2cnc(C#N)c3ncccc23)C[C@H](C(=O)NCC2CN(C)CCO2)O1` (stereo partly drawn) [Example 271, (2R,6R)-4-(8-Cyano-[1,7]naphthyridin-5-yl)-6-methyl-morpholine-2-carboxylic acid (4-methyl-morpholin-2-ylmethyl)-amide] was tested, and the IC50 [1] was < 75 nM and the IC50 [2] was < 75 nM.

With `C[C@@H]1CN(c2cnc(C#N)c3ncccc23)C[C@H](CNC(=O)[C@]2(F)CCCNC2)O1` (single isomer, unassigned) [Example 339] the IC50 [1] was > 150 nM and the IC50 [2] was < 75 nM.

For `CCN(CC)CCO[C@@H]1C[C@H](C)CN(c2ccc(C(F)(F)F)c3ncccc23)C1` (relative stereo) [Example 4, diethyl(2-[[cis-5-methyl-1-[8-(trifluoromethyl)quinolin-5-yl]piperidin-3-yl]oxy]ethyl)amine], the IC50 [1] was > 150 nM and the IC50 [2] was < 75 nM.

With `N#Cc1ccc(N2C[C@@H](C(F)(F)F)O[C@@H](C(=O)NC[C@@]3(F)CCNC3)C2)c2nccnc12` (single isomer, unassigned) [Example 307] the IC50 [1] was < 75 nM and the IC50 [2] was < 75 nM.

`C[C@H]1C[C@@H](NCC(=O)N2CCOCC2)CN(c2ccc(C(F)(F)F)c3ncccc23)C1` [Example 18, 2-{[(3R,5S)-5-methyl-1-[8-(trifluoromethyl)quinolin-5-yl]piperidin-3-yl]amino}-1-(morpholin-4-yl)ethan-1-one] was tested, and the IC50 [1] was < 75 nM and the IC50 [2] was < 75 nM.

`C[C@@H]1CN(c2ccc(C#N)c3nccnc23)C[C@H](C(=O)NC[C@H]2COCCN2C)O1` (single isomer, unassigned) [Example 263] was tested, and the IC50 [1] was < 75 nM and the IC50 [2] was < 75 nM.

`C[C@@H]1CN(c2cnc(C#N)c3ncccc23)C[C@H](CNC(=O)C2(F)CCCNC2)O1` (stereo partly drawn) [Example 333, N-{[(2S,6R)-4-(8-cyano-1,7-naphthyridin-5-yl)-6-methylmorpholin-2-yl]methyl}-3-fluoropiperidine-3-carboxamide] was tested, and the IC50 [1] was 75 to 150 nM and the IC50 [2] was < 75 nM.

For `C[C@@H]1CN(c2cnc(C#N)c3ncccc23)C[C@H](CNCC(O)CF)O1` (stereo partly drawn) [Example 373, 5-{(2S,6R)-2-[(3-Fluoro-2-hydroxy-propylamino)-methyl]-6-methyl-morpholin-4-yl}-[1,7]naphthyridine-8-carbonitrile], the IC50 [1] was > 150 nM and the IC50 [2] was > 150 nM.

For `N#Cc1ccc(N2C[C@H](NC(=O)C3CCCNC3)C[C@H](C(F)(F)F)C2)c2cccnc12` (stereo partly drawn) [Example 185, Piperidine-3-carboxylic acid [(3R,5S)-1-(8-cyano-quinolin-5-yl)-5-trifluoromethyl-piperidin-3-yl]-amide], the IC50 [1] was > 150 nM and the IC50 [2] was 75 to 150 nM.

`C[C@H]1C[C@@H](n2ccnn2)CN(c2ccc(C#N)c3nccnc23)C1` (racemic) [Example 153, 8-[cis-3-methyl-5-(1H-1,2,3-triazol-1-yl)piperidin-1-yl]quinoxaline-5-carbonitrile] was tested, and the IC50 [1] was > 150 nM and the IC50 [2] was < 75 nM.

With `CC(=O)NCCN[C@@H]1C[C@H](C)CN(c2ccc(C(F)(F)F)c3ncccc23)C1` [Example 37, N-{2-[(3R,5S)-5-Methyl-1-(8-trifluoromethyl-quinolin-5-yl)-piperidin-3-ylamino]-ethyl}-acetamide formic acid] the IC50 [1] was < 75 nM and the IC50 [2] was < 75 nM.

With `N#Cc1ccc(N2C[C@@H](C(F)(F)F)O[C@@H](C(=O)NC[C@H](O)CO)C2)c2nccnc12` (single isomer, unassigned) [Example 280] the IC50 [1] was 75 to 150 nM and the IC50 [2] was > 150 nM.

For `COC[C@H](O)CNC(=O)[C@H]1CN(c2ccc(C#N)c3nccnc23)C[C@@H](C)O1` (single isomer, unassigned) [Example 326], the IC50 [1] was 75 to 150 nM and the IC50 [2] was < 75 nM.

For `C[C@H]1C[C@@H](NC(=O)NC2CCN(C)CC2)CN(c2ccc(C(F)(F)F)c3ncccc23)C1` [Example 147, 1-(1-Methyl-piperidin-4-yl)-3-[(3R,5S)-5-methyl-1-(8-trifluoromethyl-quinolin-5-yl)-piperidin-3-yl]-urea], the IC50 [1] was > 150 nM and the IC50 [2] was < 75 nM.

With `C[C@@H]1CN(c2ccc(C#N)c3nccnc23)C[C@H](C(=O)N[C@@H](CO)C(=O)O)O1` [Example 321, (S)-2-{[(2R,6R)-4-(8-Cyano-quinoxalin-5-yl)-6-methyl-morpholine-2-carbonyl]-amino}-3-hydroxy-propionic acid] the IC50 [1] was 75 to 150 nM and the IC50 [2] was > 150 nM.

In the case of `CC(=O)N1CCC(NC(=O)[C@H]2CN(c3ccc(C#N)c4nccnc34)C[C@@H](C)O2)CC1` [Example 242, (2R,6R)-4-(8-Cyano-quinoxalin-5-yl)-6-methyl-morpholine-2-carboxylic acid (1-acetyl-piperidin-4-yl)-amide], the IC50 [1] is reported as < 75 nM and the IC50 [2] is reported as < 75 nM.

With `C[C@H]1C[C@@H](NCCCS(N)(=O)=O)CN(c2ccc(C#N)c3nccnc23)C1` [Example 34, 3-[(3R,5S)-1-(8-Cyano-quinoxalin-5-yl)-5-methyl-piperidin-3-ylamino]-propane-1-sulfonic acid amide] the IC50 [1] was < 75 nM and the IC50 [2] was < 75 nM.

In the case of `C[C@@H]1CN(c2ccc(C#N)c3ncncc23)C[C@H](C(=O)NCC2(F)CCN(C)CC2)O1` [Example 346, (2R,6R)-4-(8-Cyano-quinazolin-5-yl)-6-methyl-morpholine-2-carboxylic acid (4-fluoro-1-methyl-piperidin-4-ylmethyl)-amide], the IC50 [1] is reported as < 75 nM and the IC50 [2] is reported as < 75 nM.

`C[C@H]1C[C@@H](NC(=O)CC2CCN(C(=O)NC(C)(C)CO)CC2F)CN(c2cnc(C#N)c3ncccc23)C1` (stereo partly drawn) [Example 149, 4-{[(3R,5S)-1-(8-Cyano-[1,7]naphthyridin-5-yl)-5-methyl-piperidin-3-ylcarbamoyl]-methyl}-3-fluoro-piperidine-1-carboxylic acid (2-hydroxy-1,1-dimethyl-ethyl)-amide] was tested, and the IC50 [1] was > 150 nM and the IC50 [2] was 75 to 150 nM.
